Experimental data: patent publication US10322103B2, “Compositions for prevention/prophylactic treatment of poison ivy dermatitis” (The University of Mississippi, priority 2008, dated 2019)

Tests used:
[1] = Polarity: dissolution in ethanol and dilution with aqueous medium; type: physicochemical
Text: Polarity of HDC-Phenyl Alaninate Ester:

[2] = tested on: urushiol contact dermatitis; experiment: Induction of tolerance to poison ivy/poison oak urushiol in the guinea pig contact dermatitis model; type: in vivo, Hartley guinea pigs; conditions: for erythema at the exposure site / erythema or edema observed: Test #1; for erythema at the exposure site: 24, 48 or 72 hrs post challenge, urushiol 3.0, 4.5 and 6.0 ug; for erythema or edema at the site of urushiol challenge: 24 hours, any of the doses used; for skin lesion scores compared to groups IV and V: all the 3 tests
Text: Animals: Hartley strains of guinea pigs (n=40) were obtained from Harlan, Indianapolis Ind. 46229. The animals were divided in the 5 groups (n=8/group) and treated as described hereunder. These animals were kept in a controlled environment with a 12-hour day and night cycle and provided feed and water ad libitum. Study design: FIG. 8 describes the general procedure for determining the efficacy of the agents produced according to the present invention.
Application sites of urushiol challenge doses on abdominal skin are shown in FIG. 9, and are described below.
Group I. Animals in this group were given the compound (4) (HDC 4-(4-aminophenyl) butyrate ester) via the intramuscular (IM) route; 300 ul of the equivalent of 20 mg/mL solution of the free catechol in 5% ethanol in each hind leg. Two weeks later these animals were sensitized with urushiol (100 uL acetone containing 1.0 mg of urushiol) on the surface skin in the neck region. Two weeks later the animals were challenged with urushiol (15 uL volume acetone containing 3.0 ug, 4.5 ug or 6.0 ug) on the abdominal skin in a volume of 15 uL. The vehicle contained 15 uL of acetone (see diagram 2). The animals were tested 3 times after sensitization: Test #1 at two weeks post sensitization, test #2 conducted at four weeks post sensitization and test #3 was conducted twelve weeks post sensitization.
Group II. Animals were given 300 uL of the equivalent of 20 mg/mL solution of the free catechol in 5% ethanol of HDC Phenyl alaninate ester (compound 3) via the IM route in each hind leg (total 600 uL). This was followed by sensitization with urushiol on the neck, and then tested with urushiol challenge on the abdominal skin as described for group I.
Group III. Animals were given 300 uL of the equivalent of 20 mg/mL solution of the free catechol in 5% ethanol of HDC Hemiglutarate ester (compound 5) via the IM route in each hind leg. This was followed, two weeks later, by sensitization with (urushiol 100 uL) on the neck, followed by abdominal skin test as described for group I.
Group IV. Animals were given 300 uL of vehicle (5% ethanol) via the IM route in each of the hind legs. This was followed, two weeks later, by sensitization and then followed by abdominal skin test as described for group I.
Group V. Animals in this group were given PBS (300 uL in each of the hind legs) via the IM route. This was followed two weeks later by sensitization and then followed by abdominal skin test as described for group I.
After challenging the animals with urushiol on their abdominal skin, the severity of Erythema and Edema were observed and scored according to the Draize scoring system as shown below. The scores were recorded at 24, 48 and 72 hrs post urushiol skin application.

[3] = Test #2, 48 hours, urushiol challenge dose 4.5 ug
[4] = Test #2, 48 hours, urushiol challenge dose 6.0 ug

CCCCCCCCCCCCCCCCCc1cccc(OC(=O)[C@@H](N)Cc2ccccc2)c1OC(=O)[C@@H](N)Cc1ccccc1 [Compound 3, HDC-Phenyl Alaninate Ester]
appearance of solution (polarity) ([1]; 10 mg dissolved in 50 ul of ethanol, adjusted to 1 ml with water): formed a homogenous solution
erythema at the exposure site [2]: did not show any or showed very slight erythema
erythema or edema observed ([2]; 48 hours post challenge): no erythema or edema was observed
erythema or edema observed ([2]; 72 hours post challenge): no erythema or edema was observed
skin lesion score ([2]; Test #2, 48 hours, all challenge doses): ≤ 1.0
erythema or edema at the site of urushiol challenge ([2]; Test #3): did not show erythema or edema
lesion score ([2]; Test #3, 48 hours): ≤ 1.0
skin lesion scores compared to groups IV and V [2]: negligible

CCCCCCCCCCCCCCCCCc1cccc(OC(=O)CCCc2ccc(N)cc2)c1OC(=O)CCCc1ccc(N)cc1 [Compound 4]
appearance of solution (polarity) ([1]; 10 mg as a HCl salt in 50 ul of ethanol, adjusted to 1 mL with water (10 mg/mL)): clear solution
erythema at the exposure site [2]: did not show any or showed very slight erythema
erythema or edema observed ([2]; 48 hours post challenge): no erythema or edema was observed
erythema or edema observed ([2]; 72 hours post challenge): no erythema or edema was observed
total skin lesion score [2, 3]: 1.5
total skin lesion score [2, 4]: 1.5
erythema or edema at the site of urushiol challenge ([2]; Test #3): did not show erythema or edema
skin lesion scores compared to groups IV and V [2]: negligible

CCCCCCCCCCCCCCCCCc1cccc(OC(=O)CCCC(=O)O)c1OC(=O)CCCC(=O)O [Compound 5, 5,5′(3-heptadecyl-1,2-phenylene)bis(oxy)bis(5-oxopentanoic acid)]
appearance of solution (polarity) ([1]; 10 mg in 50 ul of ethanol, adjusted to 1 ml with potassium phosphate buffer (pH 8)): formed a homogenous solution
erythema at the exposure site [2]: did not show any or showed very slight erythema
erythema or edema observed ([2]; 48 hours post challenge): no erythema or edema was observed
erythema or edema observed ([2]; 72 hours post challenge): no erythema or edema was observed
total skin lesion score [2, 3]: 1.0
total skin lesion score [2, 4]: 2.5
total lesion score ([2]; Test #2, 72 hours): ≤ 2.0
erythema or edema at the site of urushiol challenge ([2]; Test #3): did not show erythema or edema
skin lesion scores compared to groups IV and V [2]: negligible
